Experimental data taken from the supplement of paper PMC10307832.

Tests used:
Experiment in all cases: relative viability (nuclei count vs DMSO), 5 days (fraction); higher = more cells survive
Gemcitabine + Trametinib = compound: Nc1ccn([C@@H]2O[C@H](CO)[C@@H](O)C2(F)F)c(=O)n1 [Gemcitabine] + CC(=O)Nc1cccc(-n2c(=O)n(C3CC3)c(=O)c3c(Nc4ccc(I)cc4F)n(C)c(=O)c(C)c32)c1 [Trametinib] (partner 0.02 µM)
In short: (§1)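 Lung cancer cell lines were pin-tool dosed in 1536-well plates on the day after seeding, with either a lone drug or a fixed anchor-drug dose plus five library-drug doses (not always all listed) in √10 steps. Nuclei were counted on 4× images after 5 days. Relative viability is the ratio of treated-well to vehicle-well nuclei counts, with each value a median of duplicate plates.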

Gemcitabine + Lapatinib = compound: Nc1ccn([C@@H]2O[C@H](CO)[C@@H](O)C2(F)F)c(=O)n1 [Gemcitabine] + CS(=O)(=O)CCNCc1ccc(-c2ccc3ncnc(Nc4ccc(OCc5cccc(F)c5)c(Cl)c4)c3c2)o1 [Lapatinib] (partner 2 µM)
In short: as §1

Gemcitabine + Phenformin = compound: Nc1ccn([C@@H]2O[C@H](CO)[C@@H](O)C2(F)F)c(=O)n1 [Gemcitabine] + N=C(N)NC(=N)NCCc1ccccc1 [Phenformin] (partner 250 µM)
In short: as §1

Gemcitabine + Olaparib = compound: Nc1ccn([C@@H]2O[C@H](CO)[C@@H](O)C2(F)F)c(=O)n1 [Gemcitabine] + O=C(c1cc(Cc2n[nH]c(=O)c3ccccc23)ccc1F)N1CCN(C(=O)C2CC2)CC1 [Olaparib] (partner 8 µM)
In short: as §1

Cell Line | relative viability (Gemcitabine + Trametinib; first compound 0.001 µM) | relative viability (Gemcitabine + Trametinib; first compound 0.003162 µM) | relative viability (Gemcitabine + Trametinib; first compound 0.01 µM) | relative viability (Gemcitabine + Trametinib; first compound 0.03162 µM) | relative viability (Gemcitabine + Trametinib; first compound 0.1 µM) | relative viability (Gemcitabine + Lapatinib; first compound 0.001 µM) | relative viability (Gemcitabine + Lapatinib; first compound 0.003162 µM) | relative viability (Gemcitabine + Lapatinib; first compound 0.01 µM) | relative viability (Gemcitabine + Lapatinib; first compound 0.03162 µM) | relative viability (Gemcitabine + Lapatinib; first compound 0.1 µM) | relative viability (Gemcitabine + Phenformin; first compound 0.001 µM) | relative viability (Gemcitabine + Phenformin; first compound 0.003162 µM) | relative viability (Gemcitabine + Phenformin; first compound 0.01 µM) | relative viability (Gemcitabine + Phenformin; first compound 0.03162 µM) | relative viability (Gemcitabine + Phenformin; first compound 0.1 µM) | relative viability (Gemcitabine + Olaparib; first compound 0.001 µM) | relative viability (Gemcitabine + Olaparib; first compound 0.003162 µM) | relative viability (Gemcitabine + Olaparib; first compound 0.01 µM) | relative viability (Gemcitabine + Olaparib; first compound 0.03162 µM) | relative viability (Gemcitabine + Olaparib; first compound 0.1 µM)
COR-L 105 | 0.418 | 0.463 | 0.364 | 0.367 | 0.345 | 0.362 | 0.355 | 0.314 | 0.302 | 0.269 | 0.563 | 0.48 | 0.308 | 0.271 | 0.203 | 0.692 | 0.774 | 0.625 | 0.357 | 0.282
LK-2 | 0.926 | 0.65 | 0.731 | 0.206 | 0.167 | 0.977 | 0.692 | 0.817 | 0.329 | 0.249 | 0.834 | 0.43 | 0.313 | 0.142 | 0.142 | 0.878 | 0.722 | 0.386 | 0.153 | 0.148
NCI-H727 | 0.447 | 0.355 | 0.33 | 0.327 | 0.328 | 0.843 | 0.561 | 0.262 | 0.239 | 0.281 | 0.46 | 0.448 | 0.348 | 0.419 | 0.322 | 0.816 | 0.592 | 0.35 | 0.464 | 0.426
RERF-LC-KJ | 0.893 | 0.827 | 0.845 | 0.386 | 0.24 | 0.858 | 0.821 | 0.89 | 0.909 | 0.407 | 0.454 | 0.455 | 0.404 | 0.285 | 0.26 | 1 | 0.87 | 0.804 | 0.389 | 0.293
NCI-H2023 | 0.567 | 0.577 | 0.266 | 0.152 | 0.0796 | 1.04 | 0.99 | 0.424 | 0.127 | 0.0738 | 0.35 | 0.327 | 0.192 | 0.0945 | 0.0668 | 0.505 | 0.414 | 0.236 | 0.161 | 0.0679
NCI-H322M | 0.47 | 0.327 | 0.394 | 0.382 | 0.385 | 0.61 | 0.362 | 0.239 | 0.227 | 0.217 | 0.635 | 0.378 | 0.288 | 0.334 | 0.268 | 0.564 | 0.445 | 0.356 | 0.369 | 0.411
NCI-H1666 | 0.795 | 0.946 | 0.773 | 0.655 | 0.554 | 0.617 | 0.708 | 0.512 | 0.265 | 0.239 | 0.559 | 0.476 | 0.383 | 0.378 | 0.355 | 0.777 | 0.707 | 0.748 | 0.76 | 0.597
SW 900 | 0.722 | 0.609 | 0.119 | 0.142 | 0.13 | – | – | – | – | – | 0.654 | 0.181 | 0.0793 | 0.0687 | 0.0927 | 0.837 | 0.543 | 0.165 | 0.168 | 0.134
